Source: US4894459A, “Process for the preparation of morphologically homogeneous forms of thiazole derivatives” (Richter Gedeon Vehyeszeti Gyar Rt., priority 1986, dated 1990)
Converted amounts (≈) assume the structure as drawn.

Key:
[1] = for Compaction ratio: with / without compaction; for Bulk density with compaction: hand-vibrator for 5 minutes
[2] = for Rolling angle (basic angle of the cone): funnel with tube of 5 mm diameter, opening 10 cm above the level of the material
Experimental: The data given here were measured according to the following scheme:
The form to be tested was filled into a funnel provided with a tube of 5 mm diameter, then the funnel was set into a position so that its opening was 10 cm above the level of the material.

[3] = for Deformity ratio: ratio of longitudinal axis and greatest diameter, average of 250 grains
Experimental: (G) The Deformity Ratio of the Crystals
Deformity ratio means the ratio of the longitudinal axis and greatest diameter of the crystal.
The data were determined from the measurement of 250-250 grains by averaging.

[4] = 95:5 mixtures, water, 24 hours at 60° C.
Experimental: (I) Thermodynamic Stability
The test was made as follows: a mixture of the different forms in a ratio of 95:5 for both derivatives contaminated with the other polymorph was prepared, then the system was stirred with a magnetic stirrer for 24 hours at 60° C. so that water only covered the crystals. The crystals were then filtered and morphologically studied.

[5] = form "A" vs form "B"
[6] = for Electrostatic charging: amount of stuck material after knocking / Electrostatic charging: amount of stuck material without knocking: 37 g in glass dish of 120 mm, 1 minute rubbing; for Electrostatic charging: amount of stuck material after knocking: dish knocked 10 times
Experimental: (J) Electrostatic Charging
As there is no simple procedure to be carried out in an organic chemistry laboratory, the data presented below were measured as follows: Into a glass dish of 120 mm diameter 37 g of one of the forms were transferred and then the sample was stirred for 1 minute with rubbing with a flattened end glass-rod. Following this, the content of the dish was poured out without shaking, and the amount of stuck material was measured on a balance. Then the measurement was repeated so that the dish was knocked 10 times.

[7] = physchem; details: for solubility at 5 h: distilled water, water, Saturation solubility, 5 hours stirring, UV at 277 nm
Experimental: The investigation was made as follows: the different forms were stirred in distilled water for 5 hours, and the concentration of the material in solution was determined by ultraviolet spectroscopy at 277 nm wavelength.

[8] = 10 mg in 100 ml distilled water
Experimental: The investigation was made as follows: 10-10 mg of the form to be tested were weighed into 100 ml of distilled water, under stirring. At appropriate times samples were taken from the system, and after filtration and appropriate dilution the amount of dissolved famotidine was determined by ultraviolet spectrophotometry.

[9] = system: histamine-H2 receptor; details: well known; cited from earlier work
[10] = medium with a pH lower than 3

With `NC(N)=Nc1nc(CSCCC(N)=NS(N)(=O)=O)cs1` [Form "A", N-sulfamoyl-3-(2-guanidino-thiazole-4-yl-methylthio)-propionamidine] the Compaction ratio [1] was 1.38, the “Bulk density with compaction” value [1] was 960 g/L and the “Bulk density without compaction” value [1] was 695 g/L. The “Rolling angle (basic angle of the cone)” value [2] was 41-42 °, the Deformity ratio [3] was 1.40 and the Thermodynamic stability [4] was “stabile”. For the same molecule, the “Handling and stability, comparison in words” value [5] was “unambiguously more advantageous”, the “Electrostatic charging: amount of stuck material after knocking” value [6] was 0.5 g and the “Electrostatic charging: amount of stuck material without knocking” value [6] was 2.8 g. For the same molecule, the solubility at 5 h [7] was 860 µg/mL (≈ 2550 µM), the “Dynamic solubility at 2 min” value [8] was 19 mg/L and the “Dynamic solubility at 5 min” value [8] was 25 mg/L. For the same molecule, the “Dynamic solubility at 10 min” value [8] was 42 mg/L and the “Dynamic solubility at 1 hour” value [8] was 72 mg/L.

For `NC(N)=Nc1nc(CSCCC(N)=NS(N)(=O)=O)cs1` [Form "B", N-sulfamoyl-3-(2-guanidino-thiazole-4-yl-methylthio)-propionamidine], the Compaction ratio [1] was 1.47, the “Bulk density with compaction” value [1] was 505 g/L and the “Bulk density without compaction” value [1] was 340 g/L. For the same molecule, the “Rolling angle (basic angle of the cone)” value [2] was “more than 55 °”, the “Slope of piled up sample at the beginning” value ([2]; rolling angle test, footnote x, correct rolling angle not measurable) was 80-85 ° and the “Deformity ratio, times higher than form "A"” value ([3]; form "B" vs form "A") was 3.3 times. For the same molecule, the Deformity ratio [3] was 4.70, the Thermodynamic stability [4] was “metastabile” and the “Electrostatic charging: amount of stuck material after knocking” value [6] was 10.0 g. The “Electrostatic charging: amount of stuck material without knocking” value [6] was 13 g, the “Electrostatic charging: amount attracted, times more than form "A"” value ([6]; form "B" vs form "A") was 20 times and the solubility at 5 h ([7]; unit given as mg) was 980 µg/mL (≈ 2900 µM). For the same molecule, the “Saturation solubility, comparison in words” value ([7]; form "B" vs form "A") was “significantly higher”, the “Dynamic solubility at 2 min” value [8] was 25 mg/L and the “Dynamic solubility at 5 min” value [8] was 40 mg/L. For the same molecule, the “Dynamic solubility at 10 min” value [8] was 51 mg/L and the “Dynamic solubility at 1 hour” value [8] was 76 mg/L.

In the case of `N=C(N)Nc1nc(CSCCC(=N)NS(N)(=O)=O)cs1` [Famotidine, N-sulfamoyl-3-(2-guanidino-thiazole-4-yl-methylthio)-propionamidine], the “histamine-H2 receptor blocking effect” value [9] is given as “excellent” and the “Hydrolysis of the amidino group” value [10] is given as “highly capable of hydrolysis”.
